The values below come from patent US20220127297A1, “Novel Antibacterial 3"-Derivatives Of 4,6-Disubstituted 2,5-Dideoxystreptamine Aminoglycoside Antibiotics” (AGILeBiotics B.V., priority 2018, published 2022).

Test in all cases: MIC 90, broth micro-dilution, ATCC strains
Assay [1] concerns E. coli ATCC BAA-1025 (= BL 21). It counts as cell-based, Escherichia coli. The source says:
(§1) 3.3 Protocol for MIC Determination (ATCC Strains)
(§2) Tested reference compounds. Amikacin sulfate (Cat. No. 01693, Chem-Impex), Gentamicin sulfate (Cat. No. G4918, Sigma Aldrich), Azithromycin (Cat. No. 1046056, USP), Ceftazidime Pentahydrate (Cat. No. 1098130, USP), Ciprofloxacin (Cat. No. 1134313, USP), Meropenem (Cat. No. 1392454, USP), Rifampicin (Cat. No. R0079, TCI), Tobramycin (Cat. No. 1667508, USP), Vancomycin (Cat. No. 1709007 USP).
(§3) Microbial strains. Staphylococcus aureus ATCC 29213, Staphylococcus aureus ATCC BAA-1717, Escherichia coli ATCC BAA-1025, Klebsiella pneumoniae ATCC BAA-1705, Klebsiella pneumoniae ATCC BAA-2524, Pseudomonas aeruginosa ATCC 27853, Pseudomonas aeruginosa ATCC BAA-2108, Acinetobacter baumannii ATCC BAA-1800.
(§4) Culture media and equipment. BBL™ Mueller Hinton Broth (REF 275730, Lot. 7009699, Becton Dickinson), Mueller Hinton Agar 2 (Ref. No. 97580-500G-F, Lot. No. BCBV4646, Sigma), Dulbecco's Modified Eagle's Medium (DMEM) (Cat. No. 41966-029, Gibco), Minimum Essential Medium (MEM) (Cat. No. 42360-024, Gibco), Fetal bovine serum (FBS) (Cat. No. F7524, Sigma), Non-essential amino acids (NEAA) (100×, Cat. No. 11140-035, Gibco), Sodium Pyruvate (100 mM, 100×, Cat. No. 11360-039, Gibco), Staurosporine (Cat. No. B50188, Biotrend), Cellstar 96-well plates U-bottom (Cat. No. 650180, Lot. No. E14123EB, Greiner Bio-one), CellTiter-Glo (Cat. No. G7573, Promega), 96-well plate V-bottom (Cat. No. 651201, Greiner), 96-well clear plate, U-bottom, (Cat. No. 650180, Greiner), 96-well white plate with clear bottom (Cat. No. 655098, Greiner), 96-well deep well plate 1 mL (Cat. No. 278606, Nunc), Sodium Pyruvate (100 mM, 100×, Gibco, Cat #11360-039), Incubator (Binder), Laminar flow (Thermo Scientific), BioPhotometer (Eppendorf); DEN-1B (McFarland Densitometer, Biosan); McFarland standards (polymer microparticle suspension, Biosan).
(§5) Compound preparation. The test compounds and reference antibiotics were prepared according to CLSI guidelines (Clinical and Laboratory Standards Institute (CLSI); Methods for dilution antimicrobial susceptibility tests for bacteria that grow aerobically; approved standard—ninth edition, M07-A9, Vol. 32, No. 2, 2012) as 5 mg/mL stock solutions in DMSO. Out of these DMSO solutions, 43.5 μL was transferred to 1656.5 μL of MH media in a deep well plate. Out of these working solutions 100 μL was transferred to wells in the third column of 96-well plates. Plates were previously filled with 50 μL of MH media in all wells except for the wells in the third column. After compound and antibiotic addition, 50 μL was transferred from the third to the fourth column, then from the fourth to the fifth and so on. In this manner, the compounds and antibiotics were plated in 96-well plate in serial two-fold dilutions giving a final concentration range of 64-0.125 μg/mL.
(§6) Preparation of microorganisms. Designations used for clinical isolates were from the Fidelta strain collection bank. Microorganisms used were all revived from skim milk storage at −70° C. by plating them on MH agar plates. The following day the single colony of each microorganism was again streaked on fresh agar plates. The next day, using the direct colony suspension method, broth solutions that achieve turbidity equivalent to 0.5 McFarland standard for each microorganism were prepared. […] Out of these suspensions, actual inoculums were prepared by diluting them 100× with MH media giving a final microorganism count of 2-8×10^5 CFU/mL. For each strain of microorganisms, 20 mL of these inoculum solutions were prepared. From the second to the twelfth column of 96-well plates, 50 μL of these solutions were transferred per well. To the first column, 50 μL per well of pure growth media was added. In this manner the first column was used as sterility control of media, the second column was used as control of microorganism's growth and the rest of the plate was used for MIC determination. All plates were incubated for 16-24 h at 37° C. […]

Assay [2] concerns P. aeruginosa ATCC 27853. It counts as cell-based, Pseudomonas aeruginosa.
Text: as §1, §2, §3, §4, §5, §6

The subject of assay [3] is S. aureus ATCC 29213. It counts as cell-based, Staphylococcus aureus.
Text: as §1, §2, §3, §4, §5, §6

The mark [4] stands for this setting: Escherichia coli, ATCCBAA1025, read-out: MIC 90.
The mark [5] stands for this setting: Pseudomonas aeruginosa, ATCC27853, read-out: MIC 90.
[6] abbreviates: Staphylococcus aureus, ATCC29213, read-out: MIC 90.

In brackets after ≈: the same amount, converted by molar mass. Like-named read-outs stand apart in the source and are kept apart here.

With `NCC[C@H](O)C(=O)N[C@@H]1C[C@H](N)[C@@H](O[C@H]2O[C@H](CN)[C@@H](O)[C@@H](O)[C@H]2O)[C@H](O)[C@H]1O[C@H]1O[C@H](CO)[C@@H](O)[C@H](N)[C@H]1O` [ABX3002, 3′Epi-KanaA-AHB], the “MIC90” value in assay [1] was found to be 32 µM (≈ 18.7 µg/mL); in assay [2], 32 µM (≈ 18.7 µg/mL); in assay [3] it was 16 µM (≈ 9.37 µg/mL).

In the case of `N=C(NCCN)NC1C(O)[C@@H](CO)OC(OC2C(F)[C@H](O[C@H]3OC(CN)[C@@H](O)CC3N)C(N)C[C@H]2NC(=O)[C@@H](O)CCN)[C@@H]1O` (stereo partly drawn) [ABX5020, Tobra-AHB-F-Gua-2-amino-ethyl], the MIC90 in assay [1] (setting [4]) came out at 1 µM (≈ 0.656 µg/mL); in assay [2] (setting [5]) it was 0.25 µM (≈ 0.164 µg/mL); in assay [3] (setting [6]), 0.25 µM (≈ 0.164 µg/mL).

Turning to `N=C(N)N[C@@H]1[C@@H](O)[C@@H](O[C@@H]2[C@@H](O)[C@H](O[C@H]3O[C@H](CN)[C@@H](O)[C@@H](O)[C@H]3N)[C@@H](N)C[C@H]2NC(=O)[C@@H](O)CCN)O[C@H](CO)[C@H]1O` [ABX4005, 3′Epi-KanaB-AHB-Gua], the figures for the “MIC90” value in assay [1], in assay [2] and in assay [3] were 8 µM (≈ 5.01 µg/mL), 4 µM (≈ 2.51 µg/mL) and 2 µM (≈ 1.25 µg/mL), respectively.

In the case of `NCC[C@H](O)C(=O)N[C@@H]1CC(N)[C@@H](O[C@H]2OC(CN)[C@@H](O)CC2N)[C@H](O)C1OC1O[C@H](CO)[C@@H](O)C(N)[C@H]1O` (stereo partly drawn) [ABX5004, Tobra-AHB], the “MIC90” value in assay [1] stood at 2 µM (≈ 1.14 µg/mL); in assay [2] it was 4 µM (≈ 2.27 µg/mL); in assay [3] it was 1 µM (≈ 0.569 µg/mL).

Consider `NCC[C@H](O)C(=O)N[C@@H]1CC(N)[C@@H](O[C@H]2OC(CN)[C@@H](O)CC2N)[C@H](F)C1OC1O[C@H](CO)[C@@H](O)C(N)[C@H]1O` (stereo partly drawn) [ABX5024, Tobra-AHB-F], for which the figures for the “MIC90” value in assay [1], in assay [2] and in assay [3] were 1 µM (≈ 0.571 µg/mL), 2 µM (≈ 1.14 µg/mL) and 1 µM (≈ 0.571 µg/mL), respectively.

Consider `NCCC(O)C(=O)NC1CC(N)C(OC2OC(CN)C(O)C(O)C2O)C(F)C1OC1OC(CO)C(O)C(N)C1O` (stereo not drawn) [ABX3005, 3′Epi-KanaA-AHB-F], for which the “MIC90” value worked out at 8 µM (≈ 4.7 µg/mL) in assay [1], 8 µM (≈ 4.7 µg/mL) in assay [2] and 4 µM (≈ 2.35 µg/mL) in assay [3].

For the compound `N=C(N)NC1[C@@H](O)C(OC2[C@@H](F)[C@H](O[C@H]3OC(CN)[C@@H](O)[C@H](O)C3N)C(N)C[C@H]2NC(=O)[C@@H](O)CCN)O[C@H](CO)[C@H]1O` (stereo partly drawn) [ABX4004, 3′epi-KanaB-AHB-F-Gua], the MIC90 in assay [1] (setting [4]) is 2 µM (≈ 1.26 µg/mL); in assay [2] (setting [5]), 4 µM (≈ 2.51 µg/mL); in assay [3] (setting [6]), 2 µM (≈ 1.26 µg/mL).

On to `N=C(N)NC1C(O)[C@@H](CO)OC(OC2C(F)[C@H](O[C@H]3OC(CN)[C@@H](O)CC3N)C(N)C[C@H]2NC(=O)[C@@H](O)CCN)[C@@H]1O` (stereo partly drawn) [ABX5006, Tobra-AHB-F-Gua], for which the MIC90 is 0.5 µM (≈ 0.306 µg/mL) in assay [1] (setting [4]), 0.25 µM (≈ 0.153 µg/mL) in assay [2] (setting [5]) and 0.5 µM (≈ 0.306 µg/mL) in assay [3] (setting [6]).

As for `NCC[C@H](O)C(=O)N[C@@H]1CC(N)[C@@H](O[C@H]2OC(CN)[C@@H](O)[C@@H](O)C2N)[C@H](F)C1OC1O[C@H](CO)[C@@H](O)C(N)[C@H]1O` (stereo partly drawn) [ABX4003, 3′Epi-KanaB-AHB-F], the “MIC90” value in assay [1] was 4 µM (≈ 2.35 µg/mL); in assay [2], 8 µM (≈ 4.69 µg/mL); in assay [3] it was 4 µM (≈ 2.35 µg/mL).

As to `N=C(N)NC1[C@@H](O)C(OC2[C@@H](O)[C@H](O[C@H]3OC(CN)[C@@H](O)CC3N)C(N)C[C@H]2NC(=O)[C@@H](O)CCN)O[C@H](CO)[C@H]1O` (stereo partly drawn) [ABX5005, Tobra-AHB-Gua], the “MIC90” value in assay [1] is 2 µM (≈ 1.22 µg/mL); in assay [2], 4 µM (≈ 2.44 µg/mL); in assay [3], 1 µM (≈ 0.611 µg/mL).

`N=C(NCCCN)NC1[C@@H](O)C(OC2[C@@H](F)[C@H](O[C@H]3OC(CN)[C@@H](O)CC3N)C(N)C[C@H]2NC(=O)[C@@H](O)CCN)O[C@H](CO)[C@H]1O` (stereo partly drawn) [ABX5030, Tobra-AHB-F-Gua-3-amino-propyl]: the MIC90 amounted to 1 µM (≈ 0.67 µg/mL) in assay [1] (setting [4]), 0.5 µM (≈ 0.335 µg/mL) in assay [2] (setting [5]) and 0.5 µM (≈ 0.335 µg/mL) in assay [3] (setting [6]).

On to `N=C(NC[C@@H]1CCCN1)NC1[C@@H](O)C(OC2[C@@H](F)[C@H](O[C@H]3OC(CN)[C@@H](O)CC3N)C(N)C[C@H]2NC(=O)[C@@H](O)CCN)O[C@H](CO)[C@H]1O` (stereo partly drawn) [ABX5026, Tobra-AHB-F-Gua (S) pyrrolidine-2-yl-methyl], for which the MIC90 in assay [1] (setting [4]) was 1 µM (≈ 0.696 µg/mL); in assay [2] (setting [5]), 1 µM (≈ 0.696 µg/mL); in assay [3] (setting [6]), 0.5 µM (≈ 0.348 µg/mL).

In the case of `N=C(N)NC1[C@@H](O)C(OC2[C@@H](F)[C@H](O[C@H]3OC(CN)[C@@H](O)[C@H](O)C3O)C(N)C[C@H]2NC(=O)[C@@H](O)CCN)O[C@H](CO)[C@H]1O` (stereo partly drawn) [ABX3003, 3′epi-KanaA-AHB-F-Gua], the MIC90 in assay [1] (setting [4]) came out at 4 µM (≈ 2.52 µg/mL); in assay [2] (setting [5]) it was 8 µM (≈ 5.04 µg/mL); in assay [3] (setting [6]) it was 2 µM (≈ 1.26 µg/mL).

For `NCC[C@H](O)C(=O)N[C@@H]1C[C@H](N)[C@@H](O[C@H]2O[C@H](CN)[C@@H](O)[C@H](O)[C@H]2O)[C@H](O)[C@H]1O[C@H]1O[C@H](CO)[C@@H](O)[C@H](N)[C@H]1O` [Amikacin, amikacin, reference compound], the MIC90 amounted to 2 µM (≈ 1.17 µg/mL) in assay [1] (setting [4]), 1 µM (≈ 0.586 µg/mL) in assay [2] (setting [5]) and 4 µM (≈ 2.34 µg/mL) in assay [3] (setting [6]).

As for `NCC[C@H](O)C(=O)N[C@@H]1CC(N)[C@@H](O[C@H]2OC(CN)[C@@H](O)[C@@H](O)C2N)[C@H](O)C1OC1O[C@H](CO)[C@@H](O)C(N)[C@H]1O` (stereo partly drawn) [ABX4002, 3′Epi-KanaB-AHB], the “MIC90” value in assay [1] came to 8 µM (≈ 4.68 µg/mL); in assay [2], 4 µM (≈ 2.34 µg/mL); in assay [3], 2 µM (≈ 1.17 µg/mL).
